Here are results for four compounds from ChEMBL document CHEMBL1201862, “PubChem BioAssay data set” (2004).

Molecules are shown by their SMILES. Active and inactive are the calls of the source.

Test [1] concerns the target T1, High affinity choline transporter 1 (Homo sapiens, UniProt Q9GZV3).
T1 sequence (Q9GZV3 whole entry): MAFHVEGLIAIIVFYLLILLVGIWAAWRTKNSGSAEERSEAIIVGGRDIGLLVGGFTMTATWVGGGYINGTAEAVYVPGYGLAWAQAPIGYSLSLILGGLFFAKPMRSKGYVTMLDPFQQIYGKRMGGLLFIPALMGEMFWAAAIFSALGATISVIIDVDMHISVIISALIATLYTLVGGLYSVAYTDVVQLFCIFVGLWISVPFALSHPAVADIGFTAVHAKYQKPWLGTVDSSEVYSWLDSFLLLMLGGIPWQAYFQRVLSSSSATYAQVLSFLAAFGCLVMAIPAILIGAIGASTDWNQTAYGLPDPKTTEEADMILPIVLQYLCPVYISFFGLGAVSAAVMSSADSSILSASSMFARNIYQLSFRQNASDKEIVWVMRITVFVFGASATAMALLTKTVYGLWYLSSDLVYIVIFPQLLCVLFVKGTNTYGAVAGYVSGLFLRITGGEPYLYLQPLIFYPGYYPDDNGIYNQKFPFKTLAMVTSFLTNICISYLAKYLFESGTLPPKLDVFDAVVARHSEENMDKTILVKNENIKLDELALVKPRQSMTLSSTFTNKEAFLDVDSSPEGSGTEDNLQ
Briefly: CHT activators, dose response, cell-based, 10-point CRC, membrane potential dye (AID 602376). In kind it is functional.

Another test deals with Troponin, cardiac muscle (Homo sapiens, UniProt P19429+P45379+P63316). The test can be described thus: Fluorescence-based biochemical high throughput dose response assay for activators of the calcium sensitivity of cardiac Regulated Thin Filaments (RTF). [Related pubchem assays (depositor defined):AID493008, AID493018, AID504382, AID504383]. The format is protein-complex assay.

The target of test [2] is T2, Sentrin-specific protease 7 (Homo sapiens, UniProt Q9BQF6).
T2 sequence (Q9BQF6 whole entry): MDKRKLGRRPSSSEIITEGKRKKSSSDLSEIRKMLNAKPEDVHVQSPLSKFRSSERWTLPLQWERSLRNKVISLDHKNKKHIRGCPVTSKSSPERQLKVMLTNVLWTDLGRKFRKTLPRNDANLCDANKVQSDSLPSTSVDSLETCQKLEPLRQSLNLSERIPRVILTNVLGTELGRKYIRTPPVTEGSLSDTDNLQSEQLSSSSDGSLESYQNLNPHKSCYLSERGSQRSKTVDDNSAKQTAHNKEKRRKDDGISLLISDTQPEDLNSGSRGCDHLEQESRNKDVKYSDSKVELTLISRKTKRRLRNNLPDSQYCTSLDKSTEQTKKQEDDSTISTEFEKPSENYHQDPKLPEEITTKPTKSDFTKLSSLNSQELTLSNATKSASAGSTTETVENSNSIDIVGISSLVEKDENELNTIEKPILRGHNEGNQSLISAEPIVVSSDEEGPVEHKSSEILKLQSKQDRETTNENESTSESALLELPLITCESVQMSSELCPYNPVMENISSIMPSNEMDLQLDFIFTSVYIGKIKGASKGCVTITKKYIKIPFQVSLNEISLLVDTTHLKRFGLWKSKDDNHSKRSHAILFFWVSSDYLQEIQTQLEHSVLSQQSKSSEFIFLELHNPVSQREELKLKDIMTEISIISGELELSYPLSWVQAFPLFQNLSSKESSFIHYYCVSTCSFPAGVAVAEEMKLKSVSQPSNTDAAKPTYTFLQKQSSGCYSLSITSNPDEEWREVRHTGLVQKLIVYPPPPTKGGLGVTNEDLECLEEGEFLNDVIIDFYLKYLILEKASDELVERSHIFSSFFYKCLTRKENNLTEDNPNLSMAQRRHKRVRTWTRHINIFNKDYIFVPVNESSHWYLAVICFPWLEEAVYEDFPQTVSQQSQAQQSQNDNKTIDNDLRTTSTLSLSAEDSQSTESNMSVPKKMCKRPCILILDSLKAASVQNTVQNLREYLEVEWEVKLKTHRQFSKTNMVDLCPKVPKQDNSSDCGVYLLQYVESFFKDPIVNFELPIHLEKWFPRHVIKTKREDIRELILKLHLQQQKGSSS
Briefly: SENP7 protease inhibitors, SAR follow-up, biochemical, luminescence (AID 504497). In kind it is functional.

For the next test, the target named is T3, Caspase-3 (Homo sapiens, UniProt P42574).
T3 sequence (P42574 whole entry): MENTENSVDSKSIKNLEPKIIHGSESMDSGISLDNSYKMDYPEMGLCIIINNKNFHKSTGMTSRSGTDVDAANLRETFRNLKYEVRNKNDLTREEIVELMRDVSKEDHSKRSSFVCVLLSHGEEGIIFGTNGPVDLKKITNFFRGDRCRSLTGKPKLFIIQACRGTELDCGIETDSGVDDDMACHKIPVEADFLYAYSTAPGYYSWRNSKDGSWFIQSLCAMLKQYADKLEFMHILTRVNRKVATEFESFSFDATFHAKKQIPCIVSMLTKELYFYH
The test can be described thus: SAR Analysis of small molecule inhibitors of Sentrin-specific proteases (SENPs) using a Caspase-3 Selectivity assay. [Related pubchem assays (depositor defined):AID2540, AID2599, AID434973, AID489001]. In kind it is functional.

Test [3] concerns the target T4, Sentrin-specific protease 8 (Homo sapiens, UniProt Q96LD8).
T4 sequence (Q96LD8 whole entry): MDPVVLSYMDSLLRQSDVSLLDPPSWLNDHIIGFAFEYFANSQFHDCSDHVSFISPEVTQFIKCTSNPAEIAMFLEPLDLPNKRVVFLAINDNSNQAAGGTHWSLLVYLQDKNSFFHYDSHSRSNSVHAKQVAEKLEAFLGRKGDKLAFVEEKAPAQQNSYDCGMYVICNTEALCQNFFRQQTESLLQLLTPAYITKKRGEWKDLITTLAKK
The test can be described thus: SENP8 protease inhibitors, SAR follow-up, biochemical, luminescence (AID 504501). In kind it is functional.

The target in test [4] is T5, Sentrin-specific protease 6 (Homo sapiens, UniProt Q9GZR1).
T5 sequence (Q9GZR1 whole entry): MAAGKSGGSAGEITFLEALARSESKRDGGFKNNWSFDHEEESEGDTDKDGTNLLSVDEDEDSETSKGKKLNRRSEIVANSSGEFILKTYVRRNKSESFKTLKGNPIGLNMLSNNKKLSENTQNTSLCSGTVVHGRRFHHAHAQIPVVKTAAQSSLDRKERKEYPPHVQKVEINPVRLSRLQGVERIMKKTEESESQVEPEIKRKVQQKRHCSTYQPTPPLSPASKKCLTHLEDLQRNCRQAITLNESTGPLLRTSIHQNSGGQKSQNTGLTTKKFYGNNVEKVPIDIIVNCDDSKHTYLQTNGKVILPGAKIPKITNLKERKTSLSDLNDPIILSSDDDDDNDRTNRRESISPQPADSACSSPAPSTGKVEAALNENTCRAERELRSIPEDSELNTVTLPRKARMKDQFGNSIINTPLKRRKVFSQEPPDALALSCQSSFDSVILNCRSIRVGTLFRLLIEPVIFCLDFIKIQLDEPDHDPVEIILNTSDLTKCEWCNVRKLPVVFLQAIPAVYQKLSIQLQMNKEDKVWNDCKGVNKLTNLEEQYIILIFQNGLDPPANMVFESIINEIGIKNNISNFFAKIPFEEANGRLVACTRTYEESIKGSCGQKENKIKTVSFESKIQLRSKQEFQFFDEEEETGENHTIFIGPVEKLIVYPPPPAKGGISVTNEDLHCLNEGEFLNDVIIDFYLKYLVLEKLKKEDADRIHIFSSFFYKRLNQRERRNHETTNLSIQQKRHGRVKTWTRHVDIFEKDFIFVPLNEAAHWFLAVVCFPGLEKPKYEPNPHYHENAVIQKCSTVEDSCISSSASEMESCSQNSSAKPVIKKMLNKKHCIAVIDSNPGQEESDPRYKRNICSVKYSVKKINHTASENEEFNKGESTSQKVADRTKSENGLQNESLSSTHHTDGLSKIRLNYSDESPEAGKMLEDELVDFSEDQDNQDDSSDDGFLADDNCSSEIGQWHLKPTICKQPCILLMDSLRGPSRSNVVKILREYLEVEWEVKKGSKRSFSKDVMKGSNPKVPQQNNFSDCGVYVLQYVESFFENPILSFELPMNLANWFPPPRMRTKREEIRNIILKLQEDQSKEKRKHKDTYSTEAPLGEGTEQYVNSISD
The test can be described thus: SAR Analysis of small molecule inhibitors of Sentrin-specific protease 6 (SENP6) using a Luminescent assay. [Related pubchem assays (depositor defined):AID2582, AID2599]. In kind it is functional.

Test [5] has as its target DNA dC->dU-editing enzyme APOBEC-3G (Homo sapiens, UniProt Q9HC16). The test can be described thus: APOBEC3G deaminase inhibitors, SAR follow-up, biochemical, fluorescence, single-stranded DNA substrate (AID 602136). The format is functional. Particulars: read-out: IC50_Mean.
Test [6] has as its target DNA dC->dU-editing enzyme APOBEC-3A (Homo sapiens, UniProt P31941). Briefly: SAR analysis of small molecule inhibitors of APOBEC3A DNA Deaminase via a fluorescence-based single-stranded DNA deaminase assay. In kind it is functional. The following applies: read-out: IC50_Mean.
Test [7] in a line: THP-1 cell cytotoxicity, cytotoxicity control, set 6 (AID 602433). In kind it is functional. The following applies: Mycobacterium tuberculosis.
Test [8] can be described thus: Vero cell cytotoxicity, cytotoxicity control for M. tuberculosis inhibitor project, purified and synthesized samples, set 8 (AID 602431). The format is functional. Particulars: Mycobacterium tuberculosis.

DNA dC->dU-editing enzyme APOBEC-3A, sequence (P31941 whole entry): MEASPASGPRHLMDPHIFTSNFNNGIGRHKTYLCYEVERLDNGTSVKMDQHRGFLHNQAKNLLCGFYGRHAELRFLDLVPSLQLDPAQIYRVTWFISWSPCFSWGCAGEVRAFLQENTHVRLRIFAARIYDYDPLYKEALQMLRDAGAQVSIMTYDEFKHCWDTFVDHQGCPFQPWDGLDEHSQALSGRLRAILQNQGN
DNA dC->dU-editing enzyme APOBEC-3G, sequence (Q9HC16 whole entry): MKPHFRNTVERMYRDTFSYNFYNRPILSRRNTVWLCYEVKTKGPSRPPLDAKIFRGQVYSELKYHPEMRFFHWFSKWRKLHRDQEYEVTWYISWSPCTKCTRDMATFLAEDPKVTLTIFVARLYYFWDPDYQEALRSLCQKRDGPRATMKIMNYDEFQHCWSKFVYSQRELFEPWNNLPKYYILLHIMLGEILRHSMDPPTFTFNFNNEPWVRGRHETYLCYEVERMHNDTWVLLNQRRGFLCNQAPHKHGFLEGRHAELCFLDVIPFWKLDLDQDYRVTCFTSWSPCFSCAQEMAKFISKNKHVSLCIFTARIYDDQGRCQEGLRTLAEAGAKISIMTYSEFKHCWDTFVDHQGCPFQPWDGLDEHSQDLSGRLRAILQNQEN

In general, EC50 refers to the concentration that produces a half-maximal response. Take `CC(C)CN1CCN(Cc2cccn2-c2ccc(Cl)cn2)CC1CCO` (stereo not given): the EC50 in test [1] is 8.24 µM (active); at Troponin, cardiac muscle, > 71.5 µM (inactive).

On to `Oc1ccc(Cl)cc1/C=N/Nc1cc(N2CCCC2)nc(N2CCCC2)n1`, for which the IC50 (in test [2]; on Caspase-3; in test [3]; in [4]) was > 99 µM (inactive) throughout.

Regarding `O=C(CCN1CCSC1=O)Nc1cc(Cl)ccc1N1CCOCC1`, the IC50 in [5] and in test [6] was > 99 µM (inactive) each time.

As usually defined, the CC50 is the concentration giving 50% cytotoxicity. `CC1CCCN(c2c(NCc3ccc(C(=O)N4CC=C(c5ccccc5)CC4)cc3)c(=O)c2=O)C1` (stereo not given): the figures for the CC50 in test [7] and in test [8] were 17.4 µM (active) and 67.2 µM (active), respectively.
